Laboratory results reported in patent US20100047776A1, “Cell-based screening assays for compounds that regulate the expresion of a tumor marker dj-1” (Caritas St. Elizabeth Medical Center of Boston Inc., priority 2005, published 2010).

What was measured:
human DJ-1 promoter = experiment: DJ-1 promoter luciferase reporter assay in SH-SY5Y cells stably expressing −1000DJ-Luc; type: cell-based; details: SH-SY5Y cells stably expressing −1000DJ-Luc and CMV-β-galactosidase; increasing doses of H2O2 for 24 hours; untreated sample designated as 100; FIG. 2
Text: (§1) To develop a cell-based assay system where one can identify agents that transcriptionally modulate DJ-1, a plasmid vector (−1000DJ-Luc) was made that expressed a luciferase reporter gene directed by the human DJ-1 promoter containing 1000 base pairs upstream and 65 base pairs downstream sequences (−1000 to +65) of the transcription initiation site (FIG. 1). A […] sequence containing +46 to +65 of the DJ-1 gene was fused to the luciferase gene to generate the control plasmid (0DJLuc). A neomycin resistance gene was inserted into the vectors as a selection marker.
(§2) Using the vector described in Example 1, human SH-SY5Y neuroblastoma cells were transfected with either −1000DJLuc or 0DJLuc; stably transfected clones were subsequently identified. A plasmid encoding β-galactosidase gene was co-transfected to serve as an internal control for luciferase expression.
(§3) To confirm the stable expression of the reporter genes and to evaluate these cells as devices for drug discovery, stably transfected SH-SY5Y cells were treated with increasing doses of H2O2, which has been reported to upregulate DJ-1. […] Luciferase and β-galactosidase activities were then determined. […]
(§4) C. […] Luciferase and β-galactosidase activities were determined using assay kits following manufacturer's protocol (Promega).

[1] = system: 0DJ-Luc (luciferase gene lacking the DJ-1 promoter sequence); experiment: Luciferase reporter assay in control cell lines expressing 0DJ-Luc; type: cell-based, human; details: H2O2 treatment
Text: as §1, §2, §3, §4

OO [H2O2]
Luciferase activity normalized to β-galactosidase activity (human DJ-1 promoter activation) (human DJ-1 promoter): activated the human DJ-1 promoter in a dose dependent manner | Luciferase activity in control cell lines expressing 0DJ-Luc [1]: not affected
